Laboratory results reported in patent US9902702B2, “Spirocycloheptanes as inhibitors of rock” (BRISTOL-MYERS SQUIBB COMPANY, priority 2014, dated 2018).
Counter-ions that a name gives are not always drawn.

Each compound was assayed against ROCK2 (Homo sapiens, UniProt O75116) (assay: ROCK assay: phosphorylation of FITC peptide substrate, LABCHIP 3000 mobility shift). Conditions: 5 μM ATP, 1.5 μM peptide substrate; read-out: ROCK2 Activity (ROCK IC50 range).
Type: biochemical
How it was run: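 Rho kinase variant phosphorylates 1.5 μM FITC-AHA-AKRRRLSSLRA-OH with 5 μM ATP in 20 mM HEPES pH 7.5, 20 mM MgCl2, 0.015% Brij-35, 4 mM DTT, DMSO <2%. EDTA stops the reaction, and phospho and non-phospho peptides are resolved by LabChip 3000 mobility shift. IC50 from dose-response curve fit.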

Chain of ROCK2 (O75116 whole entry, species assumed): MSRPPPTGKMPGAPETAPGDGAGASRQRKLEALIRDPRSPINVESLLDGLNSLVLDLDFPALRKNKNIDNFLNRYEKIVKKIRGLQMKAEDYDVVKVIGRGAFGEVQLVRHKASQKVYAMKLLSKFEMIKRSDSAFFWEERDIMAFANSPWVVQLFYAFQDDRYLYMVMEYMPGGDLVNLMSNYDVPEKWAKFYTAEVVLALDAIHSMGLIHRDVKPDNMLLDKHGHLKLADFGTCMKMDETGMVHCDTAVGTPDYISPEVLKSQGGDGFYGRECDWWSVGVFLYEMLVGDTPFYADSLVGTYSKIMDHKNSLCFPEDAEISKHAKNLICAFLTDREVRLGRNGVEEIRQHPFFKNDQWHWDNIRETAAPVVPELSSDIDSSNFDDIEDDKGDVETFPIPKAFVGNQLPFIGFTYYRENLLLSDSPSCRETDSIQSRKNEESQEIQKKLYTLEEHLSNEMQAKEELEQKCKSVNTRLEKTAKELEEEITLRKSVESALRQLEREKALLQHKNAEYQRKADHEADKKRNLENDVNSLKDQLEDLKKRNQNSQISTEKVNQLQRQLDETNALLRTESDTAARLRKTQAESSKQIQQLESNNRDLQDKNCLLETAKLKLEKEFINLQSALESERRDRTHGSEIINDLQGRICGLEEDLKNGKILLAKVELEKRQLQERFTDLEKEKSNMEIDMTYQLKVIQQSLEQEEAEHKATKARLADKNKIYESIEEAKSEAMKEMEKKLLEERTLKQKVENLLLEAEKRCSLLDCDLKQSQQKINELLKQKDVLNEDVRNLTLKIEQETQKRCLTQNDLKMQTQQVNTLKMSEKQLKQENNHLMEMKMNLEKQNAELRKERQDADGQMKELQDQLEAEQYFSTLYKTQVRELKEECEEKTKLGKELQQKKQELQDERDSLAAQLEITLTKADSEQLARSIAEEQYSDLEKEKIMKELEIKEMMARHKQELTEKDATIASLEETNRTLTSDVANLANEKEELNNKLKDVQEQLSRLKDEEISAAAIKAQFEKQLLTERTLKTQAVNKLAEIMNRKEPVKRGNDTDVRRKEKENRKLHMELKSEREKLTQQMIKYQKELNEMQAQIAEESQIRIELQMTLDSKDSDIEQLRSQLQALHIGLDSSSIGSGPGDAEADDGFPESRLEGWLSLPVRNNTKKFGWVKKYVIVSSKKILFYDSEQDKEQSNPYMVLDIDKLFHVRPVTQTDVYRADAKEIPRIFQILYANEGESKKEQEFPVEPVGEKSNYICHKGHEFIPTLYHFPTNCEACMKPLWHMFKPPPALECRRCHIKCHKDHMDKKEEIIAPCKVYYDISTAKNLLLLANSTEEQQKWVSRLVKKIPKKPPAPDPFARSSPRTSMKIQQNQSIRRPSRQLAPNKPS

Row | IC50 [nM] | Structure (SMILES)
1 | 2.01 to 5 | COc1cccc(-n2cc(C(=O)NC3CC4(C3)CC(c3n[nH]c(=O)c5ccccc35)C4)cn2)c1 [Example 108, 1-(3-methoxyphenyl)-N-((aR)-6-(4-oxo-3,4-dihydrophthalazin-1-yl)spiro[3.3]heptan-2-yl)-1H-pyrazole-4-carboxamide]
2 | 0.2 to 2 | COCCOc1ccc2c(C(=O)NC3CC4(C3)CC(c3n[nH]c(=O)c5ccccc35)C4)cnn2c1 (stereo not drawn) [Example 179, 6-(2-methoxyethoxy)-N-((αR)-6-(4-oxo-3,4-dihydrophthalazin-1-yl)spiro[3.3]heptan-2-yl)pyrazolo[1,5-α]pyridine-3-carboxamide]
3 | 0.2 to 2 | O=C(NC1CC2(C1)CC(c1n[nH]c(=O)c3ccccc13)C2)c1cnn2cc(OCCN3CCC(F)C3)ccc12 [Example 190, 6-(2-((S)-3-fluoropyrrolidin-1-yl)ethoxy)-N-((aR)-6-(4-oxo-3,4-dihydrophthalazin-1-yl)spiro[3.3]heptan-2-yl)pyrazolo[1,5-a]pyridine-3-carboxamide]
4 | 2.01 to 5 | CN(C)CCOc1ccc2c(C(=O)NC3CC4(C3)CC(c3n[nH]c(=O)c5ccccc35)C4)cnn2c1 [Example 183, 6-(2-(dimethylamino)ethoxy)-N-((aR)-6-(4-oxo-3,4-dihydrophthalazin-1-yl)spiro[3.3]heptan-2-yl)pyrazolo[1,5-a]pyridine-3-carboxamide]
5 | 0.2 to 2 | CC(C)(O)Cn1nc(C(=O)NC2CC3(C2)CC(c2n[nH]c(=O)c4ccccc24)C3)c2ccc(-c3ccccc3C#N)cc21 (stereo not drawn) [Example 160, 6-(2-cyanophenyl)-1-(2-hydroxy-2-methylpropyl)-N-((αR)-6-(4-oxo-3,4-dihydrophthalazin-1-yl)spiro[3.3]heptan-2-yl)-1H-indazole-3-carboxamide]
6 | 2.01 to 5 | O=C(NC1CC2(C1)CC(c1n[nH]c(=O)c3ccccc13)C2)c1cnn2cc(CCCN3CCCC3)ccc12 [Example 192, N-((aR)-6-(4-oxo-3,4-dihydrophthalazin-1-yl)spiro[3.3]heptan-2-yl)-6-(3-(pyrrolidin-1-yl)propyl)pyrazolo[1,5-a]pyridine-3-carboxamide]
7 | 2.01 to 5 | O=C(NC1CC2(C1)CC(c1n[nH]c(=O)c3ccccc13)C2)c1cnn2cc(O)ccc12 (stereo not drawn) [Example 137, 6-hydroxy-N-((αR)-6-(4-oxo-3,4-dihydrophthalazin-1-yl)spiro[3.3]heptan-2-yl)pyrazolo[1,5-α]pyridine-3-carboxamide]
8 | 15.1 to 100 | O=C(NC1CC2(C1)CC(c1n[nH]c(=O)c3ccccc13)C2)c1cnn2ncccc12 [Example 96, N-((aR)-6-(4-oxo-3,4-dihydrophthalazin-1-yl)spiro[3.3]heptan-2-yl)pyrazolo[1,5-b]pyridazine-3-carboxamide]
9 | 0.2 to 2 | [H][C@]1(c2n[nH]c(=O)c3ccccc32)C[C@]2(C[C@@H](NC(=O)c3cnc4cc(-c5ccccc5)ccn34)C2)C1 (stereo partly drawn) [Example 383, N-((aR)-6-(4-oxo-3,4-dihydrophthalazin-1-yl)spiro[3.3]heptan-2-yl)-7-phenylimidazo[1,2-a]pyridine-3-carboxamide]
10 | 2.01 to 5 | Cc1nn(C)c(C)c1-c1ccc2c(c1)CCN2C(=O)NC1CC2(C1)CC(c1n[nH]c(=O)c3ccccc13)C2 [Example 237, N-((aR)-6-(4-oxo-3,4-dihydrophthalazin-1-yl)spiro[3.3]heptan-2-yl)-5-(1,3,5-trimethyl-1H-pyrazol-4-yl)indoline-1-carboxamide]
11 | 0.2 to 2 | O=C(NC1CC2(C1)CC(c1n[nH]c(=O)c3ccccc13)C2)c1cnn2cc(OC(CF)CF)ccc12 (stereo not drawn) [Example 131, 6-((1,3-difluoropropan-2-yl)oxy)-N-((αR)-6-(4-oxo-3,4-dihydrophthalazin-1-yl)spiro[3.3]heptan-2-yl)pyrazolo[1,5-α]pyridine-3-carboxamide]
12 | 0.2 to 2 | [H][C@]1(c2n[nH]c(=O)c3ccccc32)C[C@]2(C[C@@H](NC(=O)c3cnn4cc(OCC(C)(C)OC(=O)[C@@H](N)C(C)C)ccc34)C2)C1 (stereo partly drawn) [Example 269, (S)-2-methyl-1-((3-(((aR)-6-(4-oxo-3,4-dihydrophthalazin-1-yl)spiro[3.3]heptan-2-yl)carbamoyl)pyrazolo[1,5-a]pyridin-6-yl)oxy)propan-2-yl2-amino-3-methylbutanoate, TFA]
13 | 0.2 to 2 | O=C(NC1CC2(C1)CC(c1n[nH]c(=O)c3ccccc13)C2)c1cnn2cc(N3CC(F)C3)ccc12 [Example 91, 6-(3-fluoroazetidin-1-yl)-N-((aR)-6-(4-oxo-3,4-dihydrophthalazin-1-yl)spiro[3.3]heptan-2-yl)pyrazolo[1,5-a]pyridine-3-carboxamide]
14 | 0.2 to 2 | O=C(NC1CC2(C1)CC(c1n[nH]c(=O)c3ccccc13)C2)c1cnn2cc(OCc3nnc(C4CC4)s3)ccc12 (stereo not drawn) [Example 140, 6-((5-cyclopropyl-1,3,4-thiadiazol-2-yl)methoxy)-N-((αR)-6-(4-oxo-3,4-dihydrophthalazin-1-yl)spiro[3.3]heptan-2-yl)pyrazolo[1,5-α]pyridine-3-carboxamide]
15 | 100 to 2100 | [H][C@]1(c2n[nH]c(=O)c3ccccc32)C[C@]2(C[C@@H](NC(=O)c3cc4n(n3)CCNC4=O)C2)C1 (stereo partly drawn) [Example 415, 4-oxo-N-((aR)-6-(4-oxo-3,4-dihydrophthalazin-1-yl)spiro[3,3]heptan-2-yl)-4,5,6,7-tetrahydropyrazolo[1,5-a]pyrazine-2-carboxamide]
16 | 100 to 2100 | O=C(Cc1ccc2ccccc2c1)NC1CC2(C1)CC(c1n[nH]c(=O)c3ccccc13)C2 (stereo not drawn) [Example 4, 2-(naphthalen-2-yl)-N-[6-(4-oxo-3,4-dihydrophthalazin-1-yl)spiro[3.3]heptan-2-yl]acetamide]
17 | 2.01 to 5 | Cc1noc(C)c1-c1ccc2c(C(=O)NC3CC4(C3)CC(c3n[nH]c(=O)c5ccccc35)C4)nn(CC(C)(C)O)c2c1 (stereo not drawn) [Example 155, 6-(3,5-dimethylisoxazol-4-yl)-1-(2-hydroxy-2-methylpropyl)-N-((αR)-6-(4-oxo-3,4-dihydrophthalazin-1-yl)spiro[3.3]heptan-2-yl)-1H-indazole-3-carboxamide]
18 | 5.1 to 15 | CC(C)(O)c1ccc2c(C(=O)N[C@H]3CC4(C3)C[C@H](c3n[nH]c(=O)c5ccccc53)C4)cnn2c1 (stereo partly drawn) [Example 215, 6-(2-hydroxypropan-2-yl)-N-((aR)-6-(4-oxo-3,4-dihydrophthalazin-1-yl)spiro[3.3]heptan-2-yl)pyrazolo[1,5-a]pyridine-3-carboxamide]
19 | 2.01 to 5 | O=C(NC1CC2(C1)CC(c1n[nH]c(=O)c3ccccc13)C2)c1cnc(N2CCOCC2)s1 [Example 69, 2-morpholino-N-((aR)-6-(4-oxo-3,4-dihydrophthalazin-1-yl)spiro[3.3]heptan-2-yl)thiazole-5-carboxamide]
20 | 0.2 to 2 | CC(C)(O)COc1ccc2c(C(=O)NC3CC4(C3)CC(c3n[nH]c(=O)c5ccccc35)C4)onc2c1 [Example 287, 6-(2-hydroxy-2-methylpropoxy)-N-((aR)-6-(4-oxo-3,4-dihydrophthalazin-1-yl)spiro[3.3]heptan-2-yl)benzo[c]isoxazole-3-carboxamide, TFA]
21 | 15.1 to 100 | [H][C@]1(c2n[nH]c(=O)c3ccccc32)C[C@]2(C[C@@H](NC(=O)c3ccc(-c4cc[nH]n4)cc3)C2)C1 (stereo partly drawn) [Example 357, N-((aR)-6-(4-oxo-3,4-dihydrophthalazin-1-yl)spiro[3.3]heptan-2-yl)-4-(1H-pyrazol-3-yl)benzamide]
